From patent US9861680B2, “Immunomodulators” (BRISTOL-MYERS SQUIBB COMPANY, priority 2014, dated 2018)
Numbered stars: 1 amine (or outer) side, 2 acyl side, 3 side chain; on linkers, the order of the positions; unused ones are H or OH. Bridge positions count the residues as written; N and C are the ends. Square brackets hold non-standard residues; d marks the D form. Peptide text beside a SMILES is read from it. X1 = O=C(CN(CCC(F)(F)F)[*:1])[*:2]; Gly(N-2-aminoethyl) = NCCNCC(=O)O; NBnAla = C[C@H](NCc1ccccc1)C(=O)O; Hyp = O=C(O)[C@@H]1C[C@@H](O)CN1; Gly(N-CH2CH2OH) = O=C(O)CNCCO; NMeNle = CCCC[C@H](NC)C(=O)O; NMeA = CN[C@@H](C)C(=O)O; Dab = NCC[C@H](N)C(=O)O

Target: T1, PD-1-Ig binding to PD-L1-TVMV-His (PD-L1-His) (Homo sapiens, UniProt Q9NZQ7)
T1 construct: hPDL1(19-239)-TVMV-His; made in house; host or cells: HEK293T
T1 sequence (Q9NZQ7 with tags, fused parts or gaps): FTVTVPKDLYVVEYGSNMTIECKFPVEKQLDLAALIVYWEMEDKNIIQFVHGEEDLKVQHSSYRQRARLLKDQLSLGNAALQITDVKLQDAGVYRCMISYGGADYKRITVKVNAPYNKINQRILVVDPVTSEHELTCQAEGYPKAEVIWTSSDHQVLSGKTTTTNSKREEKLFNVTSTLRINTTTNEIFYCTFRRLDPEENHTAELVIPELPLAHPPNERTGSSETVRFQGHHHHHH
Assay: PD-1/PD-L1 Homogenous Time-Resolved Fluorescence (HTRF) binding assay
Settings: range class; PD-L1-His 10 nM, PD-1-Ig 20 nM
In short: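 Compound was pre-incubated 15 min with PD-L1-His (10 nM final; human, cynomolgus, mouse or other species), then PD-1-Ig (20 nM final) was added for a further 15 min. Detection used Eu-cryptate anti-Ig (1 nM) and APC anti-His (20 nM), read after 30 min as the HTRF 665/620 nm ratio. Buffer was dPBS, 0.1% BSA, 0.05% Tween-20.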

Row | IC50 [µM] | Structure (SMILES)
1 | 0.01 to 0.099 | CCCC[C@H]1C(=O)N(C)[C@@H](CCCC)C(=O)N[C@@H](CC(C)C)C(=O)N[C@H](C(=O)NCC(N)=O)CSCC(=O)N[C@@H](Cc2ccc(O)cc2)C(=O)N(C)[C@@H](C)C(=O)N[C@@H](CC(N)=O)C(=O)N(CCN)CC(=O)N[C@@H](Cc2cnc[nH]2)C(=O)N[C@@H](CCC(=O)O)C(=O)N2C[C@H](O)C[C@H]2C(=O)N[C@@H](Cc2c[nH]c3ccccc23)C(=O)N[C@@H](CCN)C(=O)N[C@@H](Cc2c[nH]c3ccccc23)C(=O)N1C [Example 3014] ({CH2CO}-Y[NMeA]N[Gly(N-2-aminoethyl)]HE[Hyp]W[Dab]W[NMeNle][NMeNle]LCG-NH2; thioether N-14)
2 | 0.01 to 0.099 | CCCC[C@H]1C(=O)N(C)[C@@H](CCCC)C(=O)N[C@@H](CC(C)C)C(=O)N[C@H](C(=O)NCC(N)=O)CSCC(=O)N[C@@H](Cc2ccc(O)cc2)C(=O)N(C)[C@@H](C)C(=O)N[C@@H](CC(N)=O)C(=O)N2CCC[C@H]2C(=O)N[C@@H](Cc2cnc[nH]2)C(=O)N[C@@H](CCC(=O)O)C(=O)N(CCC(F)(F)F)CC(=O)N[C@@H](Cc2c[nH]c3ccccc23)C(=O)N[C@@H](CCN)C(=O)N[C@@H](Cc2c[nH]c3ccccc23)C(=O)N1C [Example 3007] ({CH2CO}-Y[NMeA]NPHE[X1]W[Dab]W[NMeNle][NMeNle]LCG-NH2; thioether N-14)
3 | 0.01 to 0.099 | CCCC[C@H]1C(=O)N(C)[C@@H](CCCC)C(=O)N[C@@H](CC(C)C)C(=O)N[C@H](C(=O)NCC(N)=O)CSCC(=O)N[C@@H](Cc2ccc(O)cc2)C(=O)N(C)[C@@H](C)C(=O)N[C@@H](CC(N)=O)C(=O)N2CCC[C@H]2C(=O)N[C@@H](Cc2cnc[nH]2)C(=O)N[C@@H](CCC(=O)O)C(=O)N(CCO)CC(=O)N[C@@H](Cc2c[nH]c3ccccc23)C(=O)N[C@@H](CCN)C(=O)N[C@@H](Cc2c[nH]c3ccccc23)C(=O)N1C [Example 3012] ({CH2CO}-Y[NMeA]NPHE[Gly(N-CH2CH2OH)]W[Dab]W[NMeNle][NMeNle]LCG-NH2; thioether N-14)
4 | 0.01 to 0.099 | CCCC[C@H]1C(=O)N(C)[C@@H](CCCC)C(=O)N[C@@H](CC(C)C)C(=O)N[C@H](C(=O)NCC(N)=O)CSCC(=O)N[C@@H](Cc2ccc(O)cc2)C(=O)N(CC(=O)O)CC(=O)N[C@@H](CC(N)=O)C(=O)N2CCC[C@H]2C(=O)N[C@@H](Cc2cnc[nH]2)C(=O)N[C@@H](CCC(=O)O)C(=O)N2C[C@H](O)C[C@H]2C(=O)N[C@@H](Cc2c[nH]c3ccccc23)C(=O)N[C@@H](CCN)C(=O)N[C@@H](Cc2csc3ccccc23)C(=O)N1C [Example 5003]
5 | 0.01 to 0.099 | CCCC[C@H]1C(=O)N(C)[C@@H](CCCC)C(=O)N[C@@H](CC(C)C)C(=O)N[C@H](C(=O)NCC(N)=O)CSCC(=O)N[C@@H](Cc2ccc(O)cc2)C(=O)N(C)[C@@H](C)C(=O)N[C@@H](CC(N)=O)C(=O)N(CCO)CC(=O)N[C@@H](Cc2cnc[nH]2)C(=O)N[C@@H](CCC(=O)O)C(=O)N2C[C@H](O)C[C@H]2C(=O)N[C@@H](Cc2c[nH]c3ccccc23)C(=O)N[C@@H](CCN)C(=O)N[C@@H](Cc2c[nH]c3ccccc23)C(=O)N1C [Example 3016] ({CH2CO}-Y[NMeA]N[Gly(N-CH2CH2OH)]HE[Hyp]W[Dab]W[NMeNle][NMeNle]LCG-NH2; thioether N-14)
6 | 0.1 to 10 | CCCC[C@H]1C(=O)N[C@@H](CC(C)C)C(=O)N[C@H](C(=O)NCC(N)=O)CSCC(=O)N[C@@H](Cc2ccc(O)cc2)C(=O)N(C)[C@@H](C)C(=O)N[C@@H](CC(N)=O)C(=O)N2CCC[C@H]2C(=O)N[C@@H](Cc2cnc[nH]2)C(=O)N[C@@H](CCC(=O)O)C(=O)N2C[C@H](O)C[C@H]2C(=O)N[C@@H](Cc2c[nH]c3ccccc23)C(=O)N[C@@H](CCN)C(=O)N[C@@H](Cc2c[nH]c3ccccc23)C(=O)N(Cc2ccccc2)[C@@H](C)C(=O)N1C [Example 3029] ({CH2CO}-Y[NMeA]NPHE[Hyp]W[Dab]W[NBnAla][NMeNle]LCG-NH2; thioether N-14)
